Laboratory results taken from ChEMBL document CHEMBL1201862, “PubChem BioAssay data set” (2004).
Activity calls are given as the source filed them.

What was measured:
[1] = molecular target: Tyrosine-protein phosphatase non-receptor type 5 (Homo sapiens, UniProt P54829); experiment: STEP phosphatase inhibitors, confirmation, biochemical, fluorescence intensity, uHTS hits (AID 602372); format: functional; settings: read-out: IC50_Mean
[2] = molecular target: Dual specificity protein phosphatase 3 (Homo sapiens, UniProt P51452); experiment: VHR phosphatase inhibition, dose response, selectivity assay for STEP inhibitor project, biochemical (AID 602374); format: functional; settings: read-out: IC50_Mean
[3] = molecular target: Tyrosine-protein phosphatase non-receptor type 11 (Homo sapiens, UniProt Q06124); experiment: SHP2 phosphatase inhibition, dose response, selectivity assay for STEP inhibitor project, biochemical (AID 602367); format: functional; settings: read-out: IC50_Mean
[4] = molecular target: Ras and Rab interactor 1/Tyrosine-protein kinase ABL1 (Homo sapiens, UniProt P00519+Q13671); format: functional;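 note: biochemical TR-FRET dose-response test measuring inhibition of binding between Rin1 and Abl proteins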
[5] = molecular target: Potassium voltage-gated channel subfamily KQT member 2 (Rattus norvegicus, UniProt O88943); experiment: KCNQ2 potassium channel inhibitors, dose response, cell-based, automated electrophysiology, set II, rat KCNQ2 (AID 588637); format: functional
[6] = molecular target: Botulinum neurotoxin type F (Clostridium botulinum, UniProt P30996); experiment: High-throughput multiplex microsphere dose response for inhibitors of toxin protease, specifically Botulinum neurotoxin light chain F protease, compounds from Cherry Pick 02.; format: functional; settings: read-out: EC50_MICROM
[7] = molecular target: Nuclear receptor subfamily 0 group B member 1 (Homo sapiens, UniProt P51843); format: functional, cell-based;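 note: HEK293T cells transfected with SF-1 and DAX-1 plus StAR promoter luciferase reporter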
[8] = cells; format: functional, cell-based
[9] = molecular target: SWI/SNF-related matrix-associated actin-dependent regulator of chromatin subfamily A member 2 (Homo sapiens, UniProt P51531); experiment: Luminescence-based cell-based high throughput dose response assay to identify activators of the function of SWI/SNF related, matrix associated, actin dependent regulator of chromatin, subfamily a, member 2 (SMARCA2, BRM).; format: functional
[10] = molecular target: T1, Microphthalmia-associated transcription factor (Homo sapiens, UniProt O75030); experiment: TRPM1 promoter luciferase signal decrease, dose response, MITF inhibitor project, cell-based, SK-MEL-5, cherry-picked, set 3 (AID 493073); format: functional
T1 sequence (O75030 whole entry): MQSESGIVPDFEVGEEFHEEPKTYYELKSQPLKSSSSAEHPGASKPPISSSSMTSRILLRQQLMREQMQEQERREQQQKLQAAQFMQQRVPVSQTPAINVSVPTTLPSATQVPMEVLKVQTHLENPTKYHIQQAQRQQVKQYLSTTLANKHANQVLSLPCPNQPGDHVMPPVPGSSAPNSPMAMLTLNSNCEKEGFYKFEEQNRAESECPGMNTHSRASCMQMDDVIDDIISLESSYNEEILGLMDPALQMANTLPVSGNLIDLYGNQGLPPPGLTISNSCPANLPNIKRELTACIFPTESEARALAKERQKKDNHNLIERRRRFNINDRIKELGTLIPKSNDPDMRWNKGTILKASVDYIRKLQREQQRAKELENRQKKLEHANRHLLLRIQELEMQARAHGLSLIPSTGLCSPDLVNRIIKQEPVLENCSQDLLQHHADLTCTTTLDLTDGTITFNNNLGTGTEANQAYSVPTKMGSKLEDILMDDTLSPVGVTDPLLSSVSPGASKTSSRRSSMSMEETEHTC

[11] = molecular target: T2, Interleukin-8 (Homo sapiens, UniProt P10145); experiment: Dose Response confirmation of uHTS small molecule hits for cystic fibrosis induced NFkb Inhibitors in a PAF-induced IL8 counterscreen.; format: functional; settings: read-out: IC50_Mean
[12] = molecular target: T2, Interleukin-8; experiment: Dose Response confirmation of uHTS small molecule hits for cystic fibrosis induced NFkb Inhibitors in a TNFa-induced IL8 counterscreen.; format: functional; settings: read-out: IC50_Mean
[13] = molecular target: T3, Methionyl-tRNA synthetase, putative (Trypanosoma brucei brucei, UniProt Q38C91); format: functional, Trypanosoma brucei brucei strain 927/4 GUTat10.1
[14] = molecular target: T3, Methionyl-tRNA synthetase, putative; format: functional, Trypanosoma brucei brucei strain 927/4 GUTat10.1; remark: listed apart in the source
[15] = Counterscreen for inhibitors of Trypanosoma brucei methionyl tRNA synthetase (MetRS): Luminescence-based cell-based high throughput dose response assay to identify compounds that are cytotoxic to Jurkat human T lymphocyte cells.; format: functional
[16] = tested on: Vero; experiment: Vero cell toxicity, dose response, cytotoxicity control, plate reader, cherry-pick samples (AID 687020); format: functional, cell-based; settings: Chlorocebus sabaeus
[17] = tested on: A549; experiment: A549 cell toxicity, dose response, cytotoxicity control, plate reader, cherry-pick samples (AID 687028); format: functional, cell-based; settings: Homo sapiens
[18] = cytotoxicity in HEK-293T cells, dose response, cytotoxicity control for TCR NF-kB inhibitor project, luminescence, T-cell screen hits (AID 489026); format: functional, cell-based;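 note: cells exposed to compound about 14 hours before the viability readout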
[19] = cells
[20] = Counterscreen for activators of the function of SWI/SNF related, matrix associated, actin dependent regulator of chromatin, subfamily a, member 2 (SMARCA2, BRM): Luminescence-based cell-based high throughput dose response assay to identify non-selective compounds using the VP16 reporter assay.; format: functional
[21] = inhibitors of intracellular T. cruzi replication, confirmation, NIH3T3 host cells, beta-gal luminescence (AID 2044); format: functional, cell-based;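 note: intracellular parasites grown in NIH/3T3 mouse fibroblasts as host cells; luminescent beta-galactosidase reporter signal from transgenic T. cruzi replicating inside host cells; inhibitors lower the luminescence signal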
[22] = cytotoxicity toward NIH3T3 fibroblasts, dose response, counter-screen, cell-based, ATP luminescence, mouse fibroblasts (AID 2010); format: functional;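 note: cells exposed to compound for about 90 hours before reading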
[23] = NIH/3T3 fibroblast cytotoxicity, dose response, cytotoxicity control for T. cruzi growth inhibitor project, cell-based, cherry-pick samples, set 2 (AID 651817); format: functional; settings: NIH3T3
[24] = tested on: HeLa; experiment: HeLa cell cytotoxicity, dose response, cytotoxicity control, ATP luminescence, cherry-pick samples (AID 687004); format: functional, cell-based; settings: Homo sapiens
[25] = molecular target: Aryl hydrocarbon receptor (Homo sapiens, UniProt P35869); settings: Potency;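 note: confirmatory quantitative high-throughput screen measuring activation of the AhR signaling pathway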
[26] = molecular target: T4, SUMO-activating enzyme (Homo sapiens, UniProt Q9UBT2); experiment: SUMOylation inhibitor hit validation, confirmation, SUMOylation inhibitor project, biochemical, AlphaScreen (AID 2018); format: functional
[27] = molecular target: T5, Sentrin-specific protease 8 (Homo sapiens, UniProt Q96LD8); format: functional
T5 sequence (Q96LD8 whole entry): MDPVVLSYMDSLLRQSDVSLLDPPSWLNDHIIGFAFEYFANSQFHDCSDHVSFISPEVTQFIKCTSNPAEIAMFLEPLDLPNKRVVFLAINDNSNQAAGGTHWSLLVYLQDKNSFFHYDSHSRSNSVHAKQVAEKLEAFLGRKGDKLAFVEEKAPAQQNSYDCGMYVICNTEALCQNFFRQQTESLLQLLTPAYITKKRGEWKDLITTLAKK

[28] = molecular target: T4, SUMO-activating enzyme; experiment: inhibitors of in vitro SUMOylation cascade, primary screen, biochemical, HTRF, uHTS (AID 2006); format: protein-complex assay
[29] = molecular target: T5, Sentrin-specific protease 8; format: functional; remark: listed apart in the source
[30] = AlphaScreen signal interference compounds, dose response, artefact control for ARNT-TACC3 interaction inhibitor project, biochemical, luminescence, cherry-pick (AID 651705); format: functional;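 note: AlphaScreen bead proximity signal that flags compounds interfering with the detection technology; potency reflects signal decrease which marks the compound as an assay artifact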
[31] = molecular target: T6, Low molecular weight phosphotyrosine protein phosphatase (Homo sapiens, UniProt P24666); format: functional; settings: read-out: IC50_Mean
T6 sequence (P24666 whole entry): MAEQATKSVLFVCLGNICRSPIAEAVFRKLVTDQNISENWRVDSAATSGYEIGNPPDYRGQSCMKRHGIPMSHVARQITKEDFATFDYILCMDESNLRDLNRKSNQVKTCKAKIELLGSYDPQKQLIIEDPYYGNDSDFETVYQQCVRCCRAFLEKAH

[32] = molecular target: T6, Low molecular weight phosphotyrosine protein phosphatase; format: functional; settings: read-out: IC50_Mean; remark: listed apart in the source
[33] = molecular target: T7, Calpain-2 catalytic subunit (Sus scrofa, UniProt P43367); experiment: pig calpain II inhibitor potency, dose response, biochemical, fluorogenic peptide substrate (AID 1420); format: functional
T7 sequence (P43367 whole entry): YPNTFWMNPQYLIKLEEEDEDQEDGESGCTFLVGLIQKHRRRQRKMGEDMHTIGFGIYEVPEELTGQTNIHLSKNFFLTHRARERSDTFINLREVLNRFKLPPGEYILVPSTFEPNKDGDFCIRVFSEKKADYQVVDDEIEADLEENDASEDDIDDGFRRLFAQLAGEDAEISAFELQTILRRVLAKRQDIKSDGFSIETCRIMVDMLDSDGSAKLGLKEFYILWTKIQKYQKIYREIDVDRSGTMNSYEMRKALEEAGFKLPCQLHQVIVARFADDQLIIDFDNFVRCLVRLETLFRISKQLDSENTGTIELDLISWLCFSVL

[34] = molecular target: T8, Probable nicotinate-nucleotide adenylyltransferase (Staphylococcus aureus (strain N315), UniProt P65502); format: functional, Staphylococcus aureus subsp. aureus N315;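 for IC50 Mean: confirmatory dose-response retesting of NadD inhibitor hits first found in an ultra-high-throughput screen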
[35] = microbe, parasite or virus in culture; format: functional; settings: Mycobacterium tuberculosis
[36] = molecular target: T9, Cytochrome P450 1A2 (Homo sapiens, UniProt P05177);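 note: PubChem cytochrome P450 panel assay, CYP1A2 panel member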
T9 sequence (P05177 whole entry): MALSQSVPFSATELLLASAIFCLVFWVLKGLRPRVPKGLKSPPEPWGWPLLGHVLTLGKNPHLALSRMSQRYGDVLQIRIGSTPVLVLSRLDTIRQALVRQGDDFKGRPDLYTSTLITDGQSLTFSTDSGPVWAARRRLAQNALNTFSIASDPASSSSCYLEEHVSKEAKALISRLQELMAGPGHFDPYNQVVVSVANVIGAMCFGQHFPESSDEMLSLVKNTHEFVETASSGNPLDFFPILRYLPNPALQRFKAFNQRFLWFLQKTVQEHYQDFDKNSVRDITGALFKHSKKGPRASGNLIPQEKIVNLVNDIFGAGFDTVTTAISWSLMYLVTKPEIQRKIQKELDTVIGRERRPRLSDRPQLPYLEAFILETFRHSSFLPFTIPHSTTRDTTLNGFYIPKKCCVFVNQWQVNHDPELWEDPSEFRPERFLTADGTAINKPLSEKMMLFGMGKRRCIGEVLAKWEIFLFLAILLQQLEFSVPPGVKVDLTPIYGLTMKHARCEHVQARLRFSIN

[37] = molecular target: T8, Probable nicotinate-nucleotide adenylyltransferase; format: functional, Staphylococcus aureus subsp. aureus N315; settings: read-out: IC50_Mean
[38] = cells; format: functional, cell-based; remark: listed apart in the source
[39] = cells; format: functional, cell-based; remark: listed apart in the source
[40] = molecular target: T10, Trace amine-associated receptor 1 (Homo sapiens, UniProt Q96RJ0); experiment: Fluorescence-based cell-based high throughput dose response assay to identify agonists of the human trace amine associated receptor 1 (TAAR1).; format: functional
[41] = molecular target: T10, Trace amine-associated receptor 1; experiment: Counterscreen for agonists of the human trace amine associated receptor 1 (hTAAR1): Fluorescence-based cell-based high throughput dose response assay to identify hTAAR1 agonist that also desensitize TAAR1 receptor response.; format: functional

T3 sequence (Q38C91 whole entry): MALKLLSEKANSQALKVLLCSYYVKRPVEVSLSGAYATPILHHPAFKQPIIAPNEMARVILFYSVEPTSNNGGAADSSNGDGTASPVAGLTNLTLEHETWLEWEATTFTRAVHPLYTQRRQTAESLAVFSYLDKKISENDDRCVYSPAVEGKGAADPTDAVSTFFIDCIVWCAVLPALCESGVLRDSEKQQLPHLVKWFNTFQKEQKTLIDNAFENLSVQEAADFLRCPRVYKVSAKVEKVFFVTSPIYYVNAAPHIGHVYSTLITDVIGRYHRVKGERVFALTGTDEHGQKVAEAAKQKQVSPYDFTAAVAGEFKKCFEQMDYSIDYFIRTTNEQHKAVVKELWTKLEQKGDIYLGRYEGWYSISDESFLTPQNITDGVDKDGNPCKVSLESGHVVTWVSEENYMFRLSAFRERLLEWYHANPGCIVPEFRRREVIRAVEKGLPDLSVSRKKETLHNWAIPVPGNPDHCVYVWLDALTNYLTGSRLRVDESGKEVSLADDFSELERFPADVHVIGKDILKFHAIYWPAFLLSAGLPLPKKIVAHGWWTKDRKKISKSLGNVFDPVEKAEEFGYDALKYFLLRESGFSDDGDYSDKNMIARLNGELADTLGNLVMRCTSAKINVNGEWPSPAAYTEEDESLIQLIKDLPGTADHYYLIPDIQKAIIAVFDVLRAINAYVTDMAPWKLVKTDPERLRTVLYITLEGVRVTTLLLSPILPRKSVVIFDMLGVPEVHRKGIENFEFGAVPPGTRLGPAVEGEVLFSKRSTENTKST
T4 sequence (Q9UBE0 whole entry): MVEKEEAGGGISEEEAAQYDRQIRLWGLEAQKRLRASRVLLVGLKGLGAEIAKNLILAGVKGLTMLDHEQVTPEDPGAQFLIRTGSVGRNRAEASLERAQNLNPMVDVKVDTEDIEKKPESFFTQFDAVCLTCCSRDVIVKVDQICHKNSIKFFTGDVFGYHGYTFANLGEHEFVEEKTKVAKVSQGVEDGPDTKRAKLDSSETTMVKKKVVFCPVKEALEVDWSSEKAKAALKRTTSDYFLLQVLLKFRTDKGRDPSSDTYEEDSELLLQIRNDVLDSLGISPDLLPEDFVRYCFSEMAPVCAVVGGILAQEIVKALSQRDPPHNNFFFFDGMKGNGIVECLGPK
T4 sequence (Q9UBT2 whole entry): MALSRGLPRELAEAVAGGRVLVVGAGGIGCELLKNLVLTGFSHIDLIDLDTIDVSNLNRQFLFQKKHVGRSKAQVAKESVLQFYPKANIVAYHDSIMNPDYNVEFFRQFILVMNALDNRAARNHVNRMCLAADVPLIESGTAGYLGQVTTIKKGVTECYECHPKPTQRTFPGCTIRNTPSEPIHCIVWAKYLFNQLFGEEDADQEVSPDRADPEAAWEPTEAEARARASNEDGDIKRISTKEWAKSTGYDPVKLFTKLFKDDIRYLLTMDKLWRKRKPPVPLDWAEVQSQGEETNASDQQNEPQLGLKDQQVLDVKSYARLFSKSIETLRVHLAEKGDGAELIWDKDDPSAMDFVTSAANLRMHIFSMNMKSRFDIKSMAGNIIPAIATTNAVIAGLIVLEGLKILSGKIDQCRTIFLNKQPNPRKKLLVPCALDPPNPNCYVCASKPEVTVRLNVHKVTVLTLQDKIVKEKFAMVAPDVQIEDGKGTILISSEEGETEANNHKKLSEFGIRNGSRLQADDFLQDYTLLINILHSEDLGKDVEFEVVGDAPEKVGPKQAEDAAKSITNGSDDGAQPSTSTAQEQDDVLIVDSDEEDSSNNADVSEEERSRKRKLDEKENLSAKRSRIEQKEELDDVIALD
T8 sequence (P65502 whole entry): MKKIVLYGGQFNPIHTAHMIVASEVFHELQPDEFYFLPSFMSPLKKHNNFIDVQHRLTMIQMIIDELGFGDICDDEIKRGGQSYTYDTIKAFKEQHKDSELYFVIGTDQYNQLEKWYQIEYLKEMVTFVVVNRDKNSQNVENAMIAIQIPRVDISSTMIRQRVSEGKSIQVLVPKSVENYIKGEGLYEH
T2 sequence (P10145 whole entry): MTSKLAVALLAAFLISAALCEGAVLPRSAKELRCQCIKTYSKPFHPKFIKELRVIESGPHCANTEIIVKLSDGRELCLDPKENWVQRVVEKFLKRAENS
T10 sequence (Q96RJ0 whole entry): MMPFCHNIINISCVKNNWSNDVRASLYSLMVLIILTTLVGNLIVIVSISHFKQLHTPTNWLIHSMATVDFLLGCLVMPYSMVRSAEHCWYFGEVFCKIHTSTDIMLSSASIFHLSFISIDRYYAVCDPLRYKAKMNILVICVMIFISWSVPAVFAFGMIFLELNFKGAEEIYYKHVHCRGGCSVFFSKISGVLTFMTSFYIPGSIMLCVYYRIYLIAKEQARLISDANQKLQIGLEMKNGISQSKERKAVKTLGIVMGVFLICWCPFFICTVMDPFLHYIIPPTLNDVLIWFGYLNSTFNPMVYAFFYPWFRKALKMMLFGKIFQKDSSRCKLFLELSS
Chain of Potassium voltage-gated channel subfamily KQT member 2 (O88943 whole entry): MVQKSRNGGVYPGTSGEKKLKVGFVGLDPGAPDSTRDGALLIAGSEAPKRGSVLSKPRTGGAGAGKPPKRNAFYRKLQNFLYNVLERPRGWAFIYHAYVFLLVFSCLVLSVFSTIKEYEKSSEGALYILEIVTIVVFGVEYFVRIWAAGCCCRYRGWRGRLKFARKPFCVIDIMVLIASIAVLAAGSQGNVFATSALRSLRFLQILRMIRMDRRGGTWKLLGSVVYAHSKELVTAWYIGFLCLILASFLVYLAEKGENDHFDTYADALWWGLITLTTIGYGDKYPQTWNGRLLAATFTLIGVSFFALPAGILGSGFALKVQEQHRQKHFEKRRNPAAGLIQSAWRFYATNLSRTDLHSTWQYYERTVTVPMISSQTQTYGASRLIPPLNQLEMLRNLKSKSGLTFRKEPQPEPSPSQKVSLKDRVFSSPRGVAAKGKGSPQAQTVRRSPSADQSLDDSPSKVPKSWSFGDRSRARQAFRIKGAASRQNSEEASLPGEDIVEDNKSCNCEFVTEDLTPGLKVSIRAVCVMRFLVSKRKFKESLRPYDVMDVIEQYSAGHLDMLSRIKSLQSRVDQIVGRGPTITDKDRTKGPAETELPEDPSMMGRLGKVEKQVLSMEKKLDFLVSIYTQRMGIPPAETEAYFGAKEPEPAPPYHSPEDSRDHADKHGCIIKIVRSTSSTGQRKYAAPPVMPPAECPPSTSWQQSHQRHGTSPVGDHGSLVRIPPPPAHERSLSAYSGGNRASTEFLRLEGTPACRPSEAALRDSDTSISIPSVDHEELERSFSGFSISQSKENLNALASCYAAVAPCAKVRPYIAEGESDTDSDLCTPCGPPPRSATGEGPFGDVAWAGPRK
Chain of Botulinum neurotoxin type F (P30996 1-436 limits assumed): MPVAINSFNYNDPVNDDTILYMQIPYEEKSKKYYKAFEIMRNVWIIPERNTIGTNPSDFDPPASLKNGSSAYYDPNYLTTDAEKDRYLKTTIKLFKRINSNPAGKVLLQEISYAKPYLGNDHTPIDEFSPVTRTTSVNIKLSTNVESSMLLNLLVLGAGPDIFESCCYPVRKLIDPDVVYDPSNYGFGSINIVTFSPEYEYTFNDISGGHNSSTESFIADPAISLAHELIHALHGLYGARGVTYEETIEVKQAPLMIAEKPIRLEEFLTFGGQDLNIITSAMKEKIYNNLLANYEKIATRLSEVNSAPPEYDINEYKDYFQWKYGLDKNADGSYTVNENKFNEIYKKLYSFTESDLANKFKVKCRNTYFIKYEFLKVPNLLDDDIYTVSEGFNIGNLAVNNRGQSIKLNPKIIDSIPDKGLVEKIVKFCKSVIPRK
Chain of Dual specificity protein phosphatase 3 (P51452 whole entry): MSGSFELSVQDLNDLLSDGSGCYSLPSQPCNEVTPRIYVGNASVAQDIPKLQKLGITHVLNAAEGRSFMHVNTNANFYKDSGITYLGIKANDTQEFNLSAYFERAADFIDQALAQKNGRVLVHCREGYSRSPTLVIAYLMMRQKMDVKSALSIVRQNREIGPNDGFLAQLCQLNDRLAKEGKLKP
Chain of Aryl hydrocarbon receptor (P35869 whole entry): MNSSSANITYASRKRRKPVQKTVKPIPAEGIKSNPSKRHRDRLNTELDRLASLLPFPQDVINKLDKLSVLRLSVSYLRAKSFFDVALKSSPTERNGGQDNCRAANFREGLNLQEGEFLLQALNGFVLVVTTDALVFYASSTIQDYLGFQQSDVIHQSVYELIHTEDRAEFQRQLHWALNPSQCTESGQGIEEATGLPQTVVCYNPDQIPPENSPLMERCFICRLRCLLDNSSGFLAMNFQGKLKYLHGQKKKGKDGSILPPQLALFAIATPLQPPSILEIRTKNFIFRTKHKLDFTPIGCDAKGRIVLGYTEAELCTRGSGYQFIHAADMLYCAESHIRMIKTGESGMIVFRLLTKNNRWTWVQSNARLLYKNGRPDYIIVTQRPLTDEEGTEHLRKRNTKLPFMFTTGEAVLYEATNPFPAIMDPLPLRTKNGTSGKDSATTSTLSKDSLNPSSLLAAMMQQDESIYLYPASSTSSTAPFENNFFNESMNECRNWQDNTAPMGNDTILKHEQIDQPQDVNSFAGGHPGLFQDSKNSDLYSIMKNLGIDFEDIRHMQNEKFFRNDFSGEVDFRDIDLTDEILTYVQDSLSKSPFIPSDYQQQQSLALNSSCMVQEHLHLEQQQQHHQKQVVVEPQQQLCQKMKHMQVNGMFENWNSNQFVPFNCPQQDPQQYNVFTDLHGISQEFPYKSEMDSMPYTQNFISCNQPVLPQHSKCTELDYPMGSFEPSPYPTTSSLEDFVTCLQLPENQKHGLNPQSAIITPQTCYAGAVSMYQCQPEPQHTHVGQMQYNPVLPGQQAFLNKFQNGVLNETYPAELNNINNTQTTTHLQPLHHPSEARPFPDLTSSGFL

Cc1ccc(Cn2cc(C=O)c(-c3ccc(C)cc3)n2)cc1
IC50 [1]: > 80 µM (inactive) | IC50 [2]: 73.9 µM (inactive) | IC50 [3]: > 80 µM (inactive)

Nc1cc(O)c2[nH]cnc2n1
IC50 [4]: 33.6 µM (inactive)

CCOC(=O)N1CCC(N(CCOC)C(=O)Nc2ccc(C)c(C)c2)CC1
IC50 [5]: 0.477 µM (active)

O=C(O)CN1CCN(CC(=O)O)CCN(CC(=O)O)CCN(CC(=O)O)CC1 [TETRAXETAN]
EC50 [6]: > 20 µM (inactive)

CS(=O)(=O)c1cccc(C(=O)Nc2ccc(-c3nc4ccccc4[nH]3)cc2)c1
IC50 [7]: > 67.5 µM (inactive) | IC50 [8]: > 67.5 µM (inactive)

Nc1nc2nn[nH]c2c(=O)[nH]1 [8-AZAGUANINE]
EC50 [9]: > 91.2 µM (inactive) | AC50 [10]: 0.875 µM (active)

O=S1(=O)CC=C(CSC(=S)NC2CCS(=O)(=O)C2)C1 (stereo unspecified)
IC50 [11]: 2.06 µM (active) | IC50 [12]: 3.68 µM (active)

COc1ccccc1NC(=O)c1ccc(-n2ccnc2)c([N+](=O)[O-])c1
IC50 [13]: 29 µM (inactive) | IC50 [14]: 55.4 µM (inactive) | IC50 [15]: 83.3 µM (inactive)

O=C(CN1CCN(C(=O)C2CCC2)CC1)Nc1ccc(F)cc1
AC50 [16]: 28.2 µM (active) | AC50 [17]: 21.4 µM (active)

Nc1nc(O)c2[nH]nnc2n1 [8-AZAGUANINE]
IC50 [18]: > 80 µM (inactive) | EC50 [19]: 0.153 µM (active) | EC50 [20]: > 91.2 µM (inactive) | EC50 [21]: < 0.1 µM (active) | EC50 [22]: 10.3 µM (active)

C[C@H](CO)N1C[C@H](C)[C@H](CN(C)Cc2ccc(C(F)(F)F)cc2)Oc2c(NC(=O)c3ccncc3)cccc2C1=O
AC50 [23]: 39 µM (inactive)

CNC(=O)C[C@H]1CC[C@H]2[C@@H](COc3ccc(NC(=O)Nc4cccc(C#N)c4)cc3C(=O)N2C)O1
AC50 [24]: 27.2 µM (active)

Oc1ccc(O)c2c(O)cccc12
AC50 [25]: 39.8 µM (inconclusive)

COc1cc(O)c(NC(C)=O)c2nonc12
IC50 [26]: 7.24 µM (active) | IC50 [27]: 14.6 µM (active) | IC50 [28]: 74.2 µM (active) | IC50 [29]: 8.37 µM (active)

O=S(=O)(c1ccc(Br)cc1)c1nc(-c2ccco2)oc1NCCCn1ccnc1
AC50 [30]: 108 µM (active)

c1ccc(-c2cc(N3CCCCC3)c3ccccc3n2)cc1
IC50 [31]: 9.25 µM (active) | IC50 [32]: 14 µM (active) | IC50 [33]: 3.92 µM (not active)

O=c1/c(=C\c2ccc(O)cc2)sc2n1C(c1ccccc1)C(c1ccccc1)=NN=2 (stereo unspecified)
IC50 [34]: 13.7 µM (active) | CC50 [35]: 33 µM (active) | AC50 [36]: 4.47 µM (inconclusive) | IC50 [37]: 32.1 µM (active)

Cc1ccc(NC(=O)CCN2CCc3ccccc3C2)cc1
IC50 [38]: > 29.9 µM (inactive) | EC50 [39]: > 29.9 µM (inactive) | EC50 [40]: 1.12 µM (active) | IC50 [41]: 7.46 µM (active)
